Test results from patent US7045532B2 (Millennium Pharmaceuticals, Inc., priority 1999, dated 2006).
Read-outs that look alike come from different tables or passages of the source.

Target: T1, ACE-2 (Homo sapiens, UniProt Q9BYF1)
T1 construct: a stop codon inserted after the serine immediately preceding the transmembrane domain; made in house; host or cells: CHO K1 cells (transient transfection, purified from conditioned medium)
Assay: ACE-2 Competitive Substrate Assay (ACS Assay)
Type: biochemical

[1] = Ki class per key, compounds tested in 5% DMSO, 12 compound concentrations, 25° C., Ki=Kiapp/(1+[S]/Km), read-out: Human ACE-2 Activity
[2] = Table 3, very good ACE-2 inhibiting compounds, species not given, read-out: ACE-2 Activity, Ki

T1 sequence (Q9BYF1 18-740 limits assumed): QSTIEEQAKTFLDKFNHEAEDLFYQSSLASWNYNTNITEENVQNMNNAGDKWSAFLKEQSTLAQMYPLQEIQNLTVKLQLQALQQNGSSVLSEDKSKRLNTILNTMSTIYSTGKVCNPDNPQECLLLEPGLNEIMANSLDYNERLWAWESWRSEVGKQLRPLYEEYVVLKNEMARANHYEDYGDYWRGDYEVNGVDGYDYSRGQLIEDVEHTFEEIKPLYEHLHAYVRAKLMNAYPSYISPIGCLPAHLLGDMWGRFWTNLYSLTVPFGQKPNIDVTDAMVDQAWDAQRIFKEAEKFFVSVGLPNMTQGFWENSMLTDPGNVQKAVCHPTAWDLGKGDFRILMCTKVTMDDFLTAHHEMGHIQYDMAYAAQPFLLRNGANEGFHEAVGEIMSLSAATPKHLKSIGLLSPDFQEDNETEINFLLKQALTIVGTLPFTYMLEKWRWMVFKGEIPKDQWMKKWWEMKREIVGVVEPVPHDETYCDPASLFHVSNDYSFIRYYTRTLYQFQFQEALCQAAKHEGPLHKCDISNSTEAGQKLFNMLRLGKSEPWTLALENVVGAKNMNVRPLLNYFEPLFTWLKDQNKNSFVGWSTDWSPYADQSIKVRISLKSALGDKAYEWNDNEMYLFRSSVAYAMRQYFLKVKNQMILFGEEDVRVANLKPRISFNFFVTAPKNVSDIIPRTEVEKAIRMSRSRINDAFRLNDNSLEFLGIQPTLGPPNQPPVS

Row | Compound | Ki [1] [nM] | Ki [2] [nM]
1 | CC(C)C[C@H](N[C@@H](CN1C(=O)CN(Cc2ccc(C(F)(F)F)cc2C(F)(F)F)C1=O)C(=O)O)C(=O)O [PY, 2-[2-[3-(2,4-Bis-trifluoromethyl-benzyl)-2,5-dioxo-imidazolidin-1-yl]-1-carboxy-ethylamino]-4-methyl-pentanoic acid] | > 500 | –
2 | Cc1ccc(-c2ccc(C[C@H](N[C@@H](CC(C)C)C(=O)O)C(=O)O)cc2)nc1 [PZ, (S,S)-2-{1-Carboxy-2-[4-(5-methyl-pyridin-2-yl)-phenyl]-ethylamino}-4-methyl-pentanoic acid] | < 100 | < 50
3 | Cc1ccnc(-c2ccc(C[C@H](N[C@@H](CC(C)C)C(=O)O)C(=O)O)cc2)c1 [QA, (S,S)-2-{1-Carboxy-2-[4-(4-methyl-pyridin-2-yl)-phenyl]-ethylamino}-4-methyl-pentanoic acid] | < 100 | 50 to 100
4 | CCOc1ccnc(-c2ccc(C[C@H](N[C@@H](CC(C)C)C(=O)O)C(=O)O)cc2)c1Cl [QB, (S,S)-2-{1-Carboxy-2-[4-(3-chloro-4-ethoxy-pyridin-2-yl)-phenyl]-ethylamino}-4-methyl pentanoic acid] | < 100 | 50 to 100
5 | CC(C)C[C@H](N[C@@H](Cc1ccc(-c2cnc3ccccc3c2)cc1)C(=O)O)C(=O)O [QC, (S,S)-2-[1-Carboxy-2-(4-quinolin-3-yl-phenyl)-ethylamino]-4-methyl-pentanoic acid] | < 100 | < 50
6 | CC(C)C[C@H](N[C@@H](Cc1ccc(C(=O)NCc2cc(F)cc(F)c2)cc1)C(=O)O)C(=O)O [QD, 2-[1-Carboxy-2-[4-(3,5-difluoro-benzylcarbamoyl)phenyl]-ethylamino]-4-methyl-pentanoic acid] | > 500 | –
7 | CC(C)C[C@H](N[C@@H](Cc1ccc(C(=O)Nc2cc(Cl)cc(Cl)c2)cc1)C(=O)O)C(=O)O [QE, 2-[1-Carboxy-2-[4-(3,5-dichloro-phenylcarbamoyl)-phenyl]ethylamino]-4-methyl-pentanoic acid] | < 100 | < 50
8 | CC(C)C[C@H](N[C@@H](Cc1ccc(C(=O)Nc2ccccc2)cc1)C(=O)O)C(=O)O [QF, 2-[1-Carboxy-2-(4-phenylcarbamoyl-phenyl)-ethylamino]-4-methyl-pentanoic acid] | 100 to 500 | –
9 | CC(C)C[C@H](N[C@@H](Cc1ccc(C(=O)NCc2ccccc2)cc1)C(=O)O)C(=O)O [QG, 2-[2-(4-Benzylcarbamoyl-phenyl)-1-carboxy-ethylamino]-4-methyl-pentanoic acid] | > 500 | –
10 | CC(C)C[C@H](N[C@@H](Cc1ccc(C(=O)NC2CCCCC2)cc1)C(=O)O)C(=O)O [QH, 2-[1-Carboxy-2-(4-cyclohexylcarbamoyl-phenyl)-ethylamino]-4-methyl-pentanoic acid] | > 500 | –
11 | CC(C)C[C@H](N[C@@H](Cc1ccccc1C#N)C(=O)O)C(=O)O [QI, 2-[1-Carboxy-2-(2-cyano-phenyl)-ethylamino]-4-methyl-pentanoic acid] | 100 to 500 | –
12 | CC(C)C[C@H](N[C@@H](Cc1ccc(Oc2ccccc2)cc1)C(=O)O)C(=O)O [QJ, 2-[1-Carboxy-2-(4-phenoxy-phenyl)-ethylamino]-4-methyl-pentanoic acid] | 100 to 500 | –
13 | CC(C)C[C@H](N[C@@H](Cc1ccc(OCc2csc3ccc(Cl)cc23)cc1)C(=O)O)C(=O)O [QK, 2-[1-Carboxy-2-[4-(5-chloro-benzo[b]thiophen-3-ylmethoxy)-phenyl]-ethylamino]-4-methyl-pentanoic acid] | < 100 | < 50
14 | CC(C)C[C@H](N[C@@H](Cc1cc(-c2ccc(Cl)c(Cl)c2)on1)C(=O)O)C(=O)O [QL, 2-[1-Carboxy-2-[5-(3,4-dichloro-phenyl)-isoxazol-3-yl]-ethylamino)-4-methylpentanoic acid] | < 100 | 50 to 100
15 | CC(C)C[C@H](N[C@@H](Cc1ccc(Oc2cc(Cl)cc(Cl)c2)cc1)C(=O)O)C(=O)O [QM] | 100 to 500 | –
16 | CC(C)C[C@H](N[C@@H](Cc1ccccc1Oc1cc(Cl)cc(Cl)c1)C(=O)O)C(=O)O [QN] | < 100 | < 50

Row | Compound | Ki [1] [nM] | Ki [2] [nM]
17 | CC(C)C[C@H](N[C@@H](Cc1ccccc1OCc1cccc(Cl)c1)C(=O)O)C(=O)O [QO, 2-[1-Carboxy-2-[2-(3-chloro-benzyloxy)-phenyl]-ethylamino]-4-methyl-pentanoic acid] | > 500 | –
18 | CC(C)C[C@H](N[C@@H](Cc1ccc(Oc2ccc(F)cc2)cc1)C(=O)O)C(=O)O [QP, 2-[1-Carboxy-2-[4-(4-fluoro-phenoxy)-phenyl]-ethylamino]-4-methyl-pentanoic acid] | < 100 | 50 to 100
19 | Cc1ccc(-n2ccc(C[C@H](N[C@@H](CC(C)C)C(=O)O)C(=O)O)n2)cc1 [QQ, 2-[1-Carboxy-2-(1-p-tolyl-1H-pyrazol-3-yl)-ethylamino]-4-methyl-pentanoic acid] | < 100 | 50 to 100
20 | CC(C)C[C@H](N[C@@H](Cc1ccc(NC(=O)C2CCCC2)cc1)C(=O)O)C(=O)O [QR, 2-[1-Carboxy-2-[4-(cyclopentanecarbonyl-amino)-phenyl]-ethylamino]-4-methyl-pentanoic acid] | 100 to 500 | –
21 | CC(C)C[C@H](N[C@@H](Cc1ccc(NC(=O)C(C)(C)C)cc1)C(=O)O)C(=O)O [QS, 2-{1-Carboxy-2-[4-(2,2-dimethyl-propionylamino)-phenyl]-ethylamino}-4-methyl-pentanoic acid] | 100 to 500 | –
22 | CC(C)C[C@H](N[C@@H](Cc1ccccc1OCc1csc2ccc(Cl)cc12)C(=O)O)C(=O)O [QT, 2-{1-Carboxy-2-[2-(5-chloro-benzo[b]thiophen-3-ylmethoxy)-phenyl]-ethylamino}-4-methyl-pentanoic acid] | > 500 | –
23 | CC(C)C[C@H](N[C@@H](Cc1cc(-c2ccc(Cl)cc2)on1)C(=O)O)C(=O)O [QU, 2-(1-Carboxy-2-[5-(4-chloro-phenyl)-isoxazol-3-yl]-ethylamino]-4-methyl-pentanoic acid] | < 100 | < 50
24 | CC(C)C[C@H](N[C@@H](Cc1cc(-c2ccccc2Cl)on1)C(=O)O)C(=O)O [QV, 2-[1-Carboxy-2-[5-(2-chloro-phenyl)-isoxazol-3-yl]-ethylamino]-4-methyl-pentanoic acid] | < 100 | –
25 | CC(C)C[C@H](N[C@@H](Cc1ccc(OCC2COc3ccc(F)cc32)cc1)C(=O)O)C(=O)O (stereo partly shown) [QW, 2-[1-Carboxy-2-[4-(5-fluoro-2,3-dihydro-benzofuran-3-ylmethoxy)-phenyl]-ethylamino]-4-methyl-pentanoic acid] | < 100 | < 50
26 | CC(C)C[C@H](N[C@@H](Cc1ccc(OCc2csc3ccccc23)cc1)C(=O)O)C(=O)O [QX, 2-{2-[4-(Benzo[b]thiophen3-ylmethoxy)-phenyl]-1-carboxy-ethylamino]-4-methyl-pentanoic acid] | < 100 | –
27 | CC(C)C[C@H](N[C@@H](Cc1ccc(C(=O)O)n1Cc1cc(Cl)cc(Cl)c1)C(=O)O)C(=O)O [QY, 5-[2-Carboxy-2-(1-carboxy-3-methyl-butylamino)-ethyl]-1-(3,5-dichloro-benzyl)-1H-pyrrole-2-carboxylic acid] | < 100 | < 50
28 | CC(C)C[C@H](N[C@@H](Cc1ccc(C(=O)C(F)(F)F)n1CCC1CCCCC1)C(=O)O)C(=O)O [QZ, 2-[1-Carboxy-2-[1-(2-cyclohexyl-ethyl)-5-(2,2,2-trifluoro-acetyl)-1H-pyrrol-2-yl]-ethylamino]-4-methylpentanoic acid] | < 100 | < 50
29 | CC(C)C[C@H](N[C@@H](Cc1ccc([N+](=O)O)cc1)C(=O)O)C(=O)O [RA, 2-[1-Carboxy-2-(4-nitro-phenyl)-ethylamino]-4-methyl-pentanoic acid] | 100 to 500 | –
30 | COc1ccccc1C(=O)Nc1ccc(C[C@H](N[C@@H](CC(C)C)C(=O)O)C(=O)O)cc1 [RB, 2-[1-Carboxy-2-[4-(2-methoxy-benzoylamino)-phenyl]-ethylamino]-4-methyl-pentanoic acid] | < 100 | < 50
31 | CC(C)C[C@H](N[C@@H](Cc1ccc(N(Cc2cc(F)cc(F)c2)Cc2cc(F)cc(F)c2)cc1)C(=O)O)C(=O)O [RD, 2-(2-(4-[Bis-(3,5-difluoro-benzyl)-amino]-phenyl)-1-carboxy-ethylamino)-4-methyl-pentanoic acid] | 100 to 500 | –
